Values joined by “and” are separate entries in the source; they are usually repeats but may differ in a detail not shown here. Equal entries are not always repeated.

Data set [1] has as its system HCC-1954 xenograft tumors. Nature of the data set: HCC-1954 xenograft: N-glycan profiling of tumors and tissues after ADC dosing. Format: in vivo, mice (Balb/cAnNRj-Foxn1nu-nu). Particulars: three 10 mg/kg i.v. doses, tumors collected on day 8. Here is the method: The study was performed at the TCDM/Central Animal Laboratory, University of Turku, Finland, according to the appropriate ethical committee approval. Cells for inoculation to mice were prepared in vigorous exponential growth phase. 5 million cells in 50% Matrigel were inoculated s.c. to the flank of each mouse. Clinical signs and general behavior of the animals was observed regularly. […] Tumor growth was followed by palpation. After caliper measurement, tumor volume was calculated according to 0.5×length×width^2. The first dosings were administered when average tumor volume reached […]. Mice were evenly divided into study groups so that each group received similar distribution of different-sized tumors and the average tumor volumes were similar in each group. The mice received two additional dosings at 3 days and 6 days after the first dosing. Control mice received no dosings. At the end of the study on day 8 after the first dosing, the mice were sacrificed and representative samples of the tumors, blood (serum), liver, spleen, skin and muscle were taken and frozen for analyses.
Test substances were prepared as described above. […] The samples were subjected to N-glycan profiling with MALDI-TOF MS essentially as described above.

Data set [2] relates to mannosidase I. The experiment in a line: ADC activity in SK-BR-3 cells after incubation of the ADC in human and mouse sera. Format: cell-based. To be noted: 7 days' incubation in both human and mouse sera, then 10 nM in SK-BR-3 culture for three days.
A short description of data set [3]: Stability of kifunensine ester compounds in buffered cell culture medium (MALDI-TOF MS). The format is physicochemical. Particulars: 5 days' incubation in buffered cell culture medium at +37° C.; signal vs hydrolysis product kifunensine. As to the method: (§1) Serum was obtained from laboratory mice according to ethical permission, or from healthy human volunteers, and prepared with standard procedures. Buffer stability test were performed either in phosphate-buffered saline (PBS, Gibco) or standard cell culture medium recommended for SK-BR-3 cells by the ATCC (about neutral pH). Payload-linker molecules were incubated in serum, buffer or medium, after which the incubation mixture was analyzed by MALDI-TOF MS as described above. […] Similar studies were also conducted with the 33DFTG-ester compounds, further verifying the observation of stabilization by carboxylic acid modifications of the ester against esterase hydrolysis. However, all the kifunensine ester compounds, when applied in 10 μM concentration to SK-BR-3 cell culture for three days, were active in mannosidase I inhibition (as shown by MALDI-TOF MS analysis of neutral N-glycans of the SK-BR-3 cells after the incubation as described below), showing that regardless of the relative protection from serum esterase hydrolysis, the esters could still be hydrolysed in cells to liberate the active payload.

Data set [4] is described as follows: Stability of kifunensine ester compounds in mouse serum (MALDI-TOF MS). Format: in vitro ADME. Particulars: 4 days' incubation in mouse serum at +37° C. Here is the method:
as §1

Data set [5] deals with B16-F10 melanoma subcutaneous tumor. Nature of the data set: Syngeneic B16-F10 melanoma subcutaneous tumor model. Format: in vivo, C57BL/6J mice. Particulars: day 15; three 10 mg/kg doses on days 2, 7 and 12 (i.v.; anti-PD-1 i.p.); control group 1534 mm^3. As to the method:
Treatment groups (n=7) were administered with three 10 mg/kg intravenous infusions of antibody or ADC to the tail vein in PBS on days 2, 7 and 12 after subcutaneous inoculation of 0.5 million B16-F10 cells in each mouse. Anti-PD-1 antibody (n=7) was administered by intraperitoneal injection. Control mice (n=5) received no injections. Plotting of the average tumor size was stopped when first mouse in the group was killed due to tumor growth.
Tumor growth was followed by palpation. After caliper measurement, tumor volume was calculated according to 0.5×length×width^2. The first dosings were administered 2 days after inoculation and subsequent doses at 5 days' intervals. Mice were randomly divided into study groups.
The B16-F10 tumor-bearing mice (strain C57BL/6J) were administered as described above with three 10 mg/kg i.v. (intravenous infusion to the tail vein in PBS) doses each of avelumab, avelumab-cyclo-MeMe-kifunensine (DAR=21-28) and avelumab-AANA-kifunensine (DAR=8) as well as with three 10 mg/kg i.p. (intraperitoneal injection in PBS) doses of anti-mouse-PD-1 antibody (InvivoMAb, clone RMP1-14, rat IgG2a kappa). Control mice received no injections. All study groups included 7 tumor-bearing mice while the control group included 5 tumor-bearing mice.

For data set [6], the system named is processing α-mannosidase. Nature of the data set: N-glycan profile of HCC-1954 cancer cells after kifunensine or ADC. To be noted: HCC-1954 cells, 3-4 days; 10 pM kifunensine; 10 nM or 100 nM ADC. Format: cell-based. As to the method:
(§2) JIMT-1 cancer cells (DSMZ-German Collection of Microorganisms and Cell Cultures; variable/medium HER2 expression) and HCC-1954 cancer cells (ATCC; high HER2 expression) were cultured according to the manufacturers' instructions in standard cell culture conditions and incubated for 3-4 days with either […] kifunensine or trastuzumab-kifunensine ADCs. Effect on N-glycan profiles of the cells was analyzed by isolating cellular N-glycans and MALDI-TOF MS as described above.

Data set [7] has as its system mannosidase I. Nature of the data set: N-glycan profiling of SK-BR-3 cells after inhibitor/ADC treatment (mannosidase I inhibition). To be noted: 10 μM, 3 days. The format is cell-based.
Description: SK-BR-3 breast cancer cells (ATCC) were cultured in recommended conditions and incubated with glycosylation inhibitors and ADCs for three days. The cells were then subjected to N-glycan profiling with MALDI-TOF MS essentially as described in Leijon et al. 2017, J Clin Endocrinol Metab 102(11):3990-4000, although without the deparaffinization step.
Data set [8] concerns immature dendritic cells (iDCs) with SK-BR-3 cells. Nature of the data set: Dendritic cell activation assay (iDC / SK-BR-3 co-culture, fractalkine secretion). The format is cell-based, human. Particulars: 5 nM test compound. The text has this: Monocytes were isolated from human peripheral blood (buffy coat) from healthy adult donors (Finnish Red Cross Blood Service) by using magnetic-activated microbead based cell sorting for CD14 positive cells (Miltenyi Biotec). Monocytes were differentiated to immature dendritic cells (iDCs) by using Mo-DC Differentiation Medium (Miltenyi Biotec) according the manufacturer's instructions. On day 6, to analyze cell surface expression of maturation markers, the iDCs were labeled with specific monoclonal antibodies for CD209 (R&D Systems) and CD14 (eBioscience). Nonspecific antibody binding was assessed using appropriate isotype controls. The iDCs were used for co-culture experiment on day 7.
SK-BR-3 cells (ATCC) were cultured in DMEM (Gibco) containing GlutaMAX and supplemented with 10% heat-inactivated fetal bovine serum (FBS, Gibco). SK-BR-3 cells were plated in 96-well plate (5000 c/well) in the presence or absence of […] kifunensine (Carbosynth Limited) and cultured for 5 days. Before start of the co-culture, SK-BR-3 cells were washed twice with RPMI 1640 medium (Gibco). Differentiated iDCs were collected and 0.11×10^6 cells/well were added together with the test compounds to SK-BR-3 cells and cells were incubated for 24 h at +37° C. in 5% CO2. The experiment medium was RPMI 1640 medium (Gibco) containing 10 mM Hepes and 2 mM glutamine and supplemented with 10% FBS (Gibco). All treatments were performed as duplicates. […] Phorbol 12-myristate 13-acetate (PMA, Abcam) was used as positive control. After 24 h co-culture of iDCs and SKBR-3 cells, the cell supernatants were collected and centrifuged (3000 g, 5 min, +4° C.) to remove cells and debris. The supernatants were frozen and subjected to cytokine and chemokine analysis with Human Cytokine 48-Plex Discovery Assay (EVE Technologies, Canada).

Data set [9] concerns processing α-mannosidase. Nature of the data set: N-glycan profile of JIMT-1 cancer cells after kifunensine or ADC. Format: cell-based. To be noted: JIMT-1 cells, 3-4 days. Here is the method: as §2
The mark [10] stands for this setting: SK-BR-3 + iDCs 24 h co-culture, SK-BR-3 pretreated with 10 pM kifunensine for 5 days.

On to “trastuzumab-[DBCO-PEG4-(octakis-amino)-γ-cyclodextrin-(9-(di-3-thio-propanoyl)-kifunensine)7]4 [trastuzumab-cyclo-kifunensine]”, for which, in [1], the “average mannose residues (Man) in the Man5-9GlcNAc2 glycan signal series of tumors” value is recorded as 7.36, the “proportion of complex-type N-glycans in the tumors” value is 11% and the “proportion of high-mannose type N-glycans of the total neutral N-glycans in the tumors” value is recorded as 78%. Further, the “reduction of activity after serum incubation” value with mannosidase I [2] is given as “over 50%”.
For `CC[C@H](C)C(=O)OC[C@@H]1[C@@H](O)[C@H](O)[C@H](O)[C@H]2NC(=O)C(=O)N12` [6-(2-methyl)butanoyl-kifunensine, 9-(2-methylbutanoyl)-kifunensine ester], in [3], the “stability against chemical hydrolysis in neutral pH” value (shortened to “stability”) is “reasonably stable”. For the same compound, in [4], the “compound detected after incubation in mouse serum (ester hydrolysis)” value (“compound detected after incubation” below) is “not detected on day 4”.
In data set [5], “avelumab: recombinant fully human IgG1 anti-PD-L1 antibody (Bavencio)” had an average tumor volume of 472 mm^3.
Take `CC(C)(C)C(=O)OC[C@@H]1[C@@H](O)[C@H](O)[C@H](O)[C@H]2NC(=O)C(=O)N12` [6-(2,2-dimethyl)propanoyl-kifunensine, 9-(2,2-dimethylpropionyl)-kifunensine ester]: the “stability” value in data set [3] is “reasonably stable”. In addition, the “compound detected after incubation” value in [4] is listed as “still present”.
Regarding `O=C1N[C@@H]2[C@@H](O)[C@@H](O)[C@H](O)[C@@H](CO)N2C1=O` [kifunensine], the “relative proportion of complex-type N-glycans” value in the data set with processing α-mannosidase [6] is reported as “drastically diminished”. In the data set with mannosidase I [7], the “average number of mannose residues (Man) in the Man5-9GlcNAc2 glycan signal series” value is “over 8.5”. Also, the Fractalkine in data set [8] (setting [10]) is 121 pg/mL and 120.94 pg/mL. Also, in the data set with processing α-mannosidase [9], the “N-glycan profile change (Man9 increase, complex-type decrease) relative to HCC-1954 cells” value is reported as “less intensive”.
With `CCCC(=O)OC[C@@H]1[C@@H](O)[C@H](O)[C@H](O)[C@H]2NC(=O)C(=O)N12` [6-butanoyl-kifunensine, 9-butanoyl-kifunensine ester], the “stability” value in [3] is on record as “reasonably stable”. In addition, in [4], the “compound detected after incubation” value was “not detected on day 4”.
As to `O=C(O)CCC(=O)OC[C@@H]1[C@@H](O)[C@H](O)[C@H](O)[C@H]2NC(=O)C(=O)N12` [6-succinyl-kifunensine, 9-succinyl-kifunensine], the “stability” value in [3] was “reasonably stable”. The “compound detected after incubation” value in data set [4] is on record as “still present”.
On to `CCCCCCCCCCCCCC(=O)O[C@@H]1[C@@H](C)[C@@]2(O)[C@@H](C=C(CO)C[C@]3(O)C(=O)C(C)=C[C@@H]23)[C@@H]2C(C)(C)[C@]12OC(C)=O` [PMA, Phorbol 12-myristate 13-acetate], for which the Fractalkine worked out at 158.90 pg/mL in data set [8] (setting [10]); 45.18 pg/mL in [8] (SK-BR-3 + iDCs 24 h co-culture, without kifunensine pretreatment); 8.27 pg/mL in [8] (iDCs without SK-BR-3 cells).
Consider “trastuzumab-[GalNAz-DBCO-PEG4-(octakis-amino)-γ-cyclodextrin-(9-(4-methyl-4-thio-butanoyl-3-thiopropanoyl)-kifunensine)7]4 [trastuzumab-cyclo-Me-kifunensine]”, for which the “relative proportion of complex-type N-glycans” value in the data set on processing α-mannosidase [6] is reported as “drastically diminished”. Further, in data set [1], the “average mannose residues (Man) in the Man5-9GlcNAc2 glycan signal series of tumors” value came to 7.40, the “proportion of complex-type N-glycans in the tumors” value came to 10% and the “proportion of high-mannose type N-glycans of the total neutral N-glycans in the tumors” value worked out at 80%. For the same compound, in the data set with processing α-mannosidase [9], the “N-glycan profile change (Man9 increase, complex-type decrease) relative to HCC-1954 cells” value was “less intensive”.

The record behind these values is patent publication US20230038373A1, “STABILE CONJUGATE” (Glykos Biomedical OY, priority 2019, published 2023).
